Where a chain is given by its changes, count along the chain named.
Legend:
[1] = target: T1, FLT3^D835Y (Homo sapiens, UniProt P36888, D835Y); test: LanthaScreen TR-FRET binding test, FLT3 D835Y; conditions: 15 nM protein, kinase tracer 236 3 nM, 25° C., 1 hour
T1 construct: purchased Merck Millipore 14-610
T1 sequence (P36888 27-993 D835Y): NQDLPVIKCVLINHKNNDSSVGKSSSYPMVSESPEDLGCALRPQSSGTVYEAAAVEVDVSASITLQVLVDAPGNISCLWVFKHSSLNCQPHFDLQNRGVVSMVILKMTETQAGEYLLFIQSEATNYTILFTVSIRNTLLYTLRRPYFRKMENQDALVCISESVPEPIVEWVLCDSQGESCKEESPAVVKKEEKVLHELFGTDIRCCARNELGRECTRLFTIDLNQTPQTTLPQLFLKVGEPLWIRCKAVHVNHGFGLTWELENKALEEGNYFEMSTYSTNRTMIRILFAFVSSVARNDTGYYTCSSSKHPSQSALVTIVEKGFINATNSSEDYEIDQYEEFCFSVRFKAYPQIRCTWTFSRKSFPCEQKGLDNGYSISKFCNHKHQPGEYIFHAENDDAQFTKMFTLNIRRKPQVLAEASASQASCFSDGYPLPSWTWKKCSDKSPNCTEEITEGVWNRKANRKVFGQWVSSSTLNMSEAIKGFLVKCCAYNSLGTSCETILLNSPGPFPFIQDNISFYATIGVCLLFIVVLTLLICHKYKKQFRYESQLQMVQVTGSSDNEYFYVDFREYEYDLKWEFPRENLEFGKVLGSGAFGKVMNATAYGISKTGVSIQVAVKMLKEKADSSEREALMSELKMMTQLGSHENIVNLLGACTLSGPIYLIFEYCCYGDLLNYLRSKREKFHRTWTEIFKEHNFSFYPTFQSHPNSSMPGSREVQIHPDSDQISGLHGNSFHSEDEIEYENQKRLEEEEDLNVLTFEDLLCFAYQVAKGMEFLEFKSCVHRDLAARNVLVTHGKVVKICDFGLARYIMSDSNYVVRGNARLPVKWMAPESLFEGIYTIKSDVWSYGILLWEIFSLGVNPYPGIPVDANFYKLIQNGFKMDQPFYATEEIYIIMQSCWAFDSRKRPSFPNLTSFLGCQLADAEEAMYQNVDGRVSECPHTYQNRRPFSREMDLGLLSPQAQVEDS
Protocol: (§1) FLT3 (#PV3182), JAK2 (#FV4210) and JAK3 (#PV3855) recombinant enzymes were purchased from Life Technologies, FLT3-ITD (#0778-0000-1) and FLT3^D835Y (#14-610) proteins were purchased from ProQinase and Merck Millipore, respectively. All the tests were carried out in 384-well plates. The principle of these binding tests is based on the LanthaScreen® TR-FRET methodology from Life Technologies.
(§2) FLT3 tests. The reaction mixture (15 μL total volume) contains the following compounds: 15 nM FLT3, FLT3-ITD or FLT3^D835Y, 3 nM kinase tracer 236 (Life Technologies, #PV5592) and 6 nM LanthaScreen® anti-GST antibody coupled to a europium chelate (Life Technologies, #PV5594) for FLT3-ITD and FLT3^D835Y or 6 nM LanthaScreen® anti-His antibody coupled to a europium chelate (Life Technologies, #PV5596) for FLT3.
(§3) The compounds are evaluated at 8 different concentrations prepared by making dilutions from a starting 10 mM stock solution in dimethylsulfoxide (DMSO) (Sigma, #D8418). The final DMSO concentration in the test is 1%. The reaction is carried out at 25° C. for 1 hour and detected on the EnVision® reader (Perkin Elmer) according to the recommendations of the supplier, Life Technologies.
(§4) The results are presented (Table 1) as the concentration values of the compound at which 50% of the kinase activity is inhibited, IC50 (μM), generated using the PRISM software (GraphPad).

[2] = test system: MOLM-13; test: Antiproliferative activity, MOLM-13 cells (ATPLite); type: cell-based; conditions: Homo sapiens; MOLM-13 cell line (acute myeloid leukemia, FLT3-ITD), 72 h, cell viability by ATPLite; read-out: EC50 MOLM13
Protocol: (§5) The characteristics of the cell lines used are as follows (Table 2).
(§6) MV4-11 and MOLM-13 cell lines are cultured in the culture medium specified in Table 2 above and according to the supplier's recommendations. The tests are carried out in 96-well plates. The cells are divided in two at D0. At D1, they are seeded and treated with the compounds at various concentrations and incubated for 72 h at 37° C. and 5% CO2. The dilution of the compounds from stock solutions in DMSO (Sigma, #D8418) was made semi-logarithmically for a final concentration in the culture medium of 0.1%. At day 4, cell viability is evaluated by assaying the ATP released by the living cells using the ATPLite® kit (Perkin Elmer, #6016947). The EC50 values (concentration of the compound necessary to obtain 50% of the maximum effect) are calculated using curve-fitting software.

[3] = test system: MV4-11; test: Antiproliferative activity, MV4-11 cells (ATPLite); type: cell-based; conditions: Homo sapiens; MV4-11 cell line (acute myeloid leukemia, FLT3-ITD), 72 h, cell viability by ATPLite; read-out: EC50 MV411
Protocol: as §5, §6

[4] = target: T2, FLT3 (Homo sapiens, UniProt P36888); test: LanthaScreen TR-FRET binding test, FLT3; conditions: recombinant enzyme 15 nM, kinase tracer 236 3 nM, 25° C., 1 hour
T2 construct: purchased Life Technologies PV3182
T2 sequence (P36888 27-993): T1 sequence (P36888 27-993 D835Y) with Y809D
Protocol: as §1, §2, §3, §4

[5] = target: T3, JAK2 (Homo sapiens, UniProt O60674); test: LanthaScreen TR-FRET binding test, JAK2; conditions: recombinant enzyme 15 nM, kinase tracer 236 150 nM, 25° C., 1 hour
T3 construct: purchased Life Technologies FV4210
Protocol: as §1
(§7) JAK tests. The reaction mixture (15 μL total volume) contains the following compounds: 15 nM JAK2 or JAK3, 150 nM kinase tracer 236 (Life Technologies, #PV5592) for JAK2 or 3 nM for JAK3 and 6 nM LanthaScreen® anti-GST antibody coupled to a europium chelate (Life Technologies, #PV5594) for both enzymes.
as §3, §4

[6] = target: T4, FLT3-ITD (Homo sapiens, UniProt P36888); test: LanthaScreen TR-FRET binding test, FLT3-ITD; conditions: 15 nM protein, kinase tracer 236 3 nM, 25° C., 1 hour
T4 construct: fused on or other part: GST tag, inferred from detection with the anti-GST europium antibody
T4 sequence (P36888 1-993): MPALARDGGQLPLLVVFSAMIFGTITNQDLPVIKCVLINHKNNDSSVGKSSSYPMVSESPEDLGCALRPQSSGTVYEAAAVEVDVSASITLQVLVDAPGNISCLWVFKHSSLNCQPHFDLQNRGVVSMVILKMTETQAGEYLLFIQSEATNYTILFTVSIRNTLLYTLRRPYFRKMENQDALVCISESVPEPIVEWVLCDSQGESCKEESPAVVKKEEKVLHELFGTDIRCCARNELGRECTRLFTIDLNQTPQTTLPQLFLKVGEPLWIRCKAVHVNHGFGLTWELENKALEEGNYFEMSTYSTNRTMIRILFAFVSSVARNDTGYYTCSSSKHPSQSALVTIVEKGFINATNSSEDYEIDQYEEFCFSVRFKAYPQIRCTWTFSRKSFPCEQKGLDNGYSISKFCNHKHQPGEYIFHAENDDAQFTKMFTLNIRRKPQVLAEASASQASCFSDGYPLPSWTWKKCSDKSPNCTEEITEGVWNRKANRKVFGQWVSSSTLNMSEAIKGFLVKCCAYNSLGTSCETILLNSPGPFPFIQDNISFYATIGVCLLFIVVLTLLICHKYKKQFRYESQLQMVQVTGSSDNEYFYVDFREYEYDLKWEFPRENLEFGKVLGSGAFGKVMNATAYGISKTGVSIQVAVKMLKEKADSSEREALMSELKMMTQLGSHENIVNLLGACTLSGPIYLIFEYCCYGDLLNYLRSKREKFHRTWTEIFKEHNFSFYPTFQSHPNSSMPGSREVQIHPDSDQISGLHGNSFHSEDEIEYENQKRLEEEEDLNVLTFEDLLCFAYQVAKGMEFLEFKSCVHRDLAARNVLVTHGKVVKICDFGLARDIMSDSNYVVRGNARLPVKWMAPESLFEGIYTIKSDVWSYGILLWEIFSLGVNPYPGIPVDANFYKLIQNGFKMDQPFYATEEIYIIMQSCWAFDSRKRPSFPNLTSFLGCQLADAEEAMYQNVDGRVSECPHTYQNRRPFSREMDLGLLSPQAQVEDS
Protocol: as §1, §2, §3, §4

[7] = target: T5, JAK3 (Homo sapiens, UniProt P52333); test: LanthaScreen TR-FRET binding test, JAK3; conditions: recombinant enzyme 15 nM, kinase tracer 236 3 nM, 25° C., 1 hour
T5 construct: purchased Life Technologies PV3855
T5 sequence (P52333 1-1124): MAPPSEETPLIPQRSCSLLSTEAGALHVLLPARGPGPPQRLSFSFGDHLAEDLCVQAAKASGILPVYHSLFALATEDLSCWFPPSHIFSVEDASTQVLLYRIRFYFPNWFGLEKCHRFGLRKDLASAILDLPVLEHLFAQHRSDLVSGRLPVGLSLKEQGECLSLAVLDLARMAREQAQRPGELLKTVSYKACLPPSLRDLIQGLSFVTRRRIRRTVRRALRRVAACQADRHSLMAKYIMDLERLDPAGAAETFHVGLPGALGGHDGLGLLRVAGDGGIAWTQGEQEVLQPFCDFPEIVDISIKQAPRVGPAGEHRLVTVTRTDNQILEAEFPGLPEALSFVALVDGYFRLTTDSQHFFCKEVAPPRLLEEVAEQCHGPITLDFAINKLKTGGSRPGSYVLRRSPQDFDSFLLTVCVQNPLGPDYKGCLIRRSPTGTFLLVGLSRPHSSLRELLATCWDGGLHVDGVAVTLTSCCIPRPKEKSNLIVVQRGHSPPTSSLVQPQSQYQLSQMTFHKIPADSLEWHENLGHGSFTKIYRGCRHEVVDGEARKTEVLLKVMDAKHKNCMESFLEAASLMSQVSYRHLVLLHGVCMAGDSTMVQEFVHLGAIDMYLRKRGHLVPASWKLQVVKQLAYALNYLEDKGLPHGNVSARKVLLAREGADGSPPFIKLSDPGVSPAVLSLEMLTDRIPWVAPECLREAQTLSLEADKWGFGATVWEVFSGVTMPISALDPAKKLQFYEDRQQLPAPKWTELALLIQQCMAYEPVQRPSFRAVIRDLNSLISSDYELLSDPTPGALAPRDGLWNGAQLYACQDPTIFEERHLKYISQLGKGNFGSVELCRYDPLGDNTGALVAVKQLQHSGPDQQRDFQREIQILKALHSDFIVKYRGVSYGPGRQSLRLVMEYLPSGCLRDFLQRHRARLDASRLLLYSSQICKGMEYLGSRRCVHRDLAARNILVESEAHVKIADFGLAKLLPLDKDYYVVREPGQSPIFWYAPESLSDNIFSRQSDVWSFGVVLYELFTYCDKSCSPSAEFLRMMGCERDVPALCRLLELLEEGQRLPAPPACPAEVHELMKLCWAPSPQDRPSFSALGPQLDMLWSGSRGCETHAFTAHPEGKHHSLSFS
Protocol: as §1, §7, §3, §4

T3 sequence (O60674 whole entry): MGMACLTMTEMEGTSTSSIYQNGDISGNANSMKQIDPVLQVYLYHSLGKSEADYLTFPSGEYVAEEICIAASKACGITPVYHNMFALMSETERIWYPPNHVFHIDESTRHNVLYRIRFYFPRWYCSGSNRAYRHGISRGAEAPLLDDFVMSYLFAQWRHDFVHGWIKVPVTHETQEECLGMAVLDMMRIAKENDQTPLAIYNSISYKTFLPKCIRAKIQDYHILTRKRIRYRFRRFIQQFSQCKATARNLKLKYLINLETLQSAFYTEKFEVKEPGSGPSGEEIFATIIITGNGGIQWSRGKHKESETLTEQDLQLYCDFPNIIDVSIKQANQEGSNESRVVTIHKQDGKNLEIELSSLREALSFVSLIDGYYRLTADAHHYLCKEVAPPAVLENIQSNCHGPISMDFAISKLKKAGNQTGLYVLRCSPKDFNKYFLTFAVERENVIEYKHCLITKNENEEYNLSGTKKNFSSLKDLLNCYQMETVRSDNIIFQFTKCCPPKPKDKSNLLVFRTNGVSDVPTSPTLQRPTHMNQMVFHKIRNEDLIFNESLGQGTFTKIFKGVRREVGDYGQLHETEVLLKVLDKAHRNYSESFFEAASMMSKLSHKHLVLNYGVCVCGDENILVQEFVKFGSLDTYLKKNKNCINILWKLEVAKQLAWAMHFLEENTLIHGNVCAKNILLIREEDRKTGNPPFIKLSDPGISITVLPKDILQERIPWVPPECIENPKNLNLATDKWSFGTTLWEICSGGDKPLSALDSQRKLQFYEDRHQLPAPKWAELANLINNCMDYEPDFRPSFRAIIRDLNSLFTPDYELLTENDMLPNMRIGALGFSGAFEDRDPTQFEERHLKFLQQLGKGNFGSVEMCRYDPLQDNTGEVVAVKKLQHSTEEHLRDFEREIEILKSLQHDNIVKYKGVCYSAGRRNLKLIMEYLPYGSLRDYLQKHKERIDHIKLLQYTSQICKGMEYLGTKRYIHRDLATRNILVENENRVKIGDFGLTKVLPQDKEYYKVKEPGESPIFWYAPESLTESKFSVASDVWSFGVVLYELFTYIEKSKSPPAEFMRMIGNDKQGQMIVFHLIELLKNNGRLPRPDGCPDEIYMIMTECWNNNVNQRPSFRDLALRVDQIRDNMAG

SMILES | IC50 [1] [nM] | EC50 [2] [nM] | EC50 [3] [nM] | IC50 [4] [nM] | IC50 [5] [nM] | IC50 [6] [nM] | IC50 [7] [nM]
CN1CCN(c2ccc3cc2OCCOCCOc2cccc(c2)-c2ccnc(n2)N3)CC1 [Compound 4] | 35 | 18.9 | 57.3 | 25.5 | 7.7 | 14.5 | 50
CN1CCC(N2CCN(c3ccc4cc3OCCOCCOc3cccc(c3)-c3ccnc(n3)N4)CC2)CC1 [Compound 6] | 41.2 | 145 | 246 | 110 | 5.2 | 120 | 50
CN1CCN(c2cc3cc(c2)OCCOCCOc2cccc(c2)-c2ccnc(n2)N3)CC1 [Compound 46] | 6.2 | 3.9 | 1.8 | 4.7 | 60 | 1.6 | 100
